Laboratory results as given in the supplement of paper PMC7840683.
Counter-ions that a name gives are not always drawn. ± gives the standard deviation of the averaged measurements.

Test system: HepaRG
Assay: LDH release cytotoxicity, % of total lysis control; higher = more cytotoxic
Conditions: 48 h
Procedure, shortened: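 Duplicate wells of single-lot HepaRG cells, grown on collagen I-coated 96-well plates, received eight-point half-log series of test chemicals with 100 µM as the top concentration. Exposure lasted 48 h in serum-free induction medium with 0.5% DMSO, while total lysis wells received 0.1% Triton X. Resorufin fluorescence (CytoTox-ONE, Tecan Safire) was used to quantify LDH leaked into 50 µL of spent medium. Values for percent cytotoxicity were normalized to on-plate vehicle and total lysis controls and averaged across the duplicates.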

SMILES	LDH release cytotoxicity (0.031623 µM)	LDH release cytotoxicity (0.1 µM)	LDH release cytotoxicity (0.316228 µM)	LDH release cytotoxicity (1 µM)	LDH release cytotoxicity (3.16228 µM)	LDH release cytotoxicity (10 µM)	LDH release cytotoxicity (31.6228 µM)	LDH release cytotoxicity (100 µM)	LDH release cytotoxicity (0.03162 µM)	LDH release cytotoxicity (0.3162278 µM)	LDH release cytotoxicity (0.0320971 µM)	LDH release cytotoxicity (0.1015 µM)	LDH release cytotoxicity (0.320971 µM)	LDH release cytotoxicity (1.015 µM)	LDH release cytotoxicity (3.2097118 µM)	LDH release cytotoxicity (10.15 µM)	LDH release cytotoxicity (32.0971 µM)	LDH release cytotoxicity (101.5 µM)
CCCCCCCCCCC [Undecane]	-1.34 ± 0.15%	-0.1 ± 0.21%	-2.37 ± 1.8%	-2.3 ± 0.12%	-2.08 ± 1.2%	-0.723 ± 1.2%	-0.989 ± 1.3%	1.06 ± 0.61%										
S=C(S)NCCNC(=S)S [Maneb]	-0.532 ± 1.1%	-3.72 ± 0.66%	-2.09 ± 1.5%	-4.15 ± 0.23%	25.2 ± 5.5%	75.5 ± 4.6%	77.2 ± 2.5%	77.7 ± 3%										
CC(C)(C)C(O)(CCc1ccc(Cl)cc1)Cn1cncn1 (configuration not stated) [Tebuconazole]		-0.0947 ± 0.069%		-1.1 ± 1.6%	-0.155 ± 0.14%	-0.0217 ± 1.5%	1.4 ± 1%	16.5 ± 0.49%	-1.4 ± 0.64%	-1.08 ± 1.2%								
O=C(Nc1ccccc1)Nc1cnns1 [Thidiazuron]		-0.715 ± 0.86%		-0.873 ± 0.82%	-1.15 ± 0.018%	-0.652 ± 1.3%	-0.0499 ± 1.6%	17.6 ± 3.5%	-1.24 ± 0.048%	-0.562 ± 0.16%								
CCCCCCCCCCCCCCCCCC(=O)O [Octadecanoic acid]		-1.75 ± 1.4%		-1.46 ± 0.77%	-1.45 ± 0.023%	-0.538 ± 0.059%	-0.0805 ± 0.49%	0.581 ± 0.81%	-0.507 ± 0.67%	-1.54 ± 0.31%								
COc1ccc(O)c(C(C)(C)C)c1 [2-tert-Butyl-4-methoxyphenol]		-1.18 ± 0.12%		0.0291 ± 1.1%	0.0384 ± 1.3%	0.94 ± 1.4%	1.15 ± 1.3%	2.22 ± 1.8%	-1.55 ± 0.4%	0.0233 ± 0.91%								
Cc1cc(-c2ccc(N)c(C)c2)ccc1N [3,3'-Dimethylbenzidine]		-1.43 ± 0.33%		-1.27 ± 0.083%	-0.397 ± 0.66%	-0.218 ± 0.26%	2.22 ± 0.32%	5.88 ± 1.2%	-0.774 ± 1.1%	-1.35 ± 0.3%								
Cc1c(COC(=O)C2C(C=C(Cl)C(F)(F)F)C2(C)C)cccc1-c1ccccc1 (configuration not stated) [Bifenthrin]		-2.22 ± 0.62%		-2.12 ± 0.18%	-1.77 ± 0.75%	-1.98 ± 0.032%	-2.13 ± 0.62%	-0.496 ± 0.96%	-1.61 ± 1.9%	-2.26 ± 0.28%								
CCCCCCCCCCCCCCC [Pentadecane]		-0.5079 ± 0.0034%		-1.27 ± 1.5%	-0.987 ± 0.93%	-0.163 ± 0.94%	0.517 ± 0.29%	1.96 ± 1.3%	-1.39 ± 0.28%	-0.0639 ± 1.3%								
Cc1ncc(CO)c(CO)c1O [Pyridoxine]		-2.28 ± 1.7%		-2.01 ± 0.55%	-2.69 ± 0.98%	-2.47 ± 0.94%	-2.46 ± 1.2%	1.11 ± 0.51%	-3.02 ± 0.18%	-2.33 ± 0.68%								
C=CCc1ccc(O)c(OC)c1 [Eugenol]		-1.91 ± 0.14%		-2.07 ± 0.26%	-2.07 ± 0.21%	-1.74 ± 0.19%	-0.896 ± 0.51%	-0.336 ± 0.32%	-2.2 ± 1.2%	-1.79 ± 0.029%								
CN/C(=N\[N+](=O)[O-])NCc1cnc(Cl)s1 [Clothianidin]		-0.34 ± 0.13%		-0.952 ± 0.36%	-0.743 ± 0.035%	-0.23 ± 0.17%	-0.557 ± 0.27%	0.586 ± 0.26%	-0.975 ± 0.7%	-1.12 ± 0.038%								
Nn1cnnc1 [4-Amino-1,2,4-triazole]											-2.94 ± 0.43%	-2.79 ± 0.045%	-3.1 ± 0.21%	-3.38 ± 1.2%	-2.7 ± 0.23%	-3.19 ± 0.35%	-3.08 ± 0.13%	0.447 ± 1.1%
CN1C(=O)CCC1c1cccnc1 (configuration not stated) [Cotinine]		-2.34 ± 0.73%		-1.31 ± 0.42%	-0.499 ± 0.41%	-0.978 ± 0.13%	-0.74 ± 0.22%	0.597 ± 0.61%	-0.994 ± 0.49%	-0.492 ± 0.14%								
O=[N+]([O-])c1ccc(O)cc1 [Sodium 4-nitrophenolate]		-1.68 ± 0.15%		-1.48 ± 0.37%	-1.71 ± 0.25%	-1.02 ± 0.3%	-0.45 ± 0.45%	0.91 ± 0.54%	-0.704 ± 0.2%	-1.99 ± 0.34%								
CN(C)C(=S)S [Sodium dimethyldithiocarbamate]		-0.29 ± 1%		-0.72 ± 0.44%	-0.138 ± 0.64%	0.154 ± 0.44%	0.196 ± 0.41%	2.63 ± 2.6%	-0.405 ± 0.41%	-0.988 ± 0.04%								
COc1ccc2c(c1)c(CC(=O)O)c(C)n2C(=O)c1ccc(Cl)cc1 [1-(p-Chlorobenzoyl)-5-methoxy-2-methyl-Indole-3-acetic acid]		-0.408 ± 0.23%		0.493 ± 0.042%	0.818 ± 0.36%	0.284 ± 0.81%	0.637 ± 0.53%	1.2 ± 0.22%	-0.418 ± 0.2%	-0.399 ± 0.2%								
O=C(c1ccc(OCCN2CCCCC2)cc1)c1c(-c2ccc(O)cc2)sc2cc(O)ccc12 [Raloxifene hydrochloride]		-1.13 ± 1.1%		-1.8 ± 0.23%	-2.08 ± 1.1%	-1.62 ± 0.17%	-1.9 ± 0.18%	73.39 ± 0.7%	-1.32 ± 0.65%	-0.881 ± 0.13%								
O=C(O)c1cccc(N(Cc2cccnc2)c2ccc(OC(F)F)c(OC(F)F)c2)c1		-1.45 ± 0.3%		-1.77 ± 0.18%	-1.858 ± 0.0033%	-2.03 ± 0.35%	-2.58 ± 0.68%	-1.73 ± 0.97%	-1.28 ± 0.33%	-1.1 ± 0.23%								
